Results reported in ChEMBL document CHEMBL4351029, “Design and evaluation of pyrazolopyrimidines as KCNQ channel modulators” (Bioorg Med Chem Lett, 2019).

Assays:
[1] = molecular target: Voltage-gated potassium channel, KQT; KCNQ2(Kv7.2)/KCNQ3(Kv7.3) (Homo sapiens, UniProt O43525+O43526); test: Agonist activity at human KCNQ2/3 expressed in HEK293 cells by FLIPR based thallium influx assay; assay type: cell-based
[2] = molecular target: Voltage-gated potassium channel, KQT; KCNQ2(Kv7.2)/KCNQ3(Kv7.3) (Homo sapiens) (UniProt O43526+O43525); test: Agonist activity at human KCNQ2/3 expressed in HEK293 cells by FLIPR based thallium influx assay relative to retigabine; assay type: cell-based
[3] = tested on: Rattus norvegicus; test: Antiallodynic activity in rat model of capsaicin-induced mechanical hyperalgesia assessed as increase in paw withdrawal threshold at 100 mg/kg, ip administered 30 mins before capsaicin addition relative to control; assay type: functional
[4] = tested on: Rattus norvegicus; test: Antiallodynic activity in ip dosed rat model of capsaicin-induced mechanical hyperalgesia assessed as increase in paw withdrawal threshold administered 30 mins before capsaicin addition; assay type: functional, organism-based
[5] = Plasma clearance in rat at 1 mg/kg. iv; assay type: ADME, organism-based
[6] = Ratio of drug level in brain to plasma in rat; assay type: ADME; details: read-out: BPR
[7] = Oral bioavailability in rat at 1 mg/kg; assay type: ADME, organism-based; details: in vivo
[8] = tested on: Rattus norvegicus; test: Antiallodynic activity in rat model of capsaicin-induced mechanical hyperalgesia assessed as increase in paw withdrawal threshold at 30 mg/kg, ip administered 30 mins before capsaicin addition relative to control; assay type: functional
[9] = Half life in rat at 1 mg/kg, iv; assay type: ADME, organism-based; details: in vivo
[10] = tested on: Rattus norvegicus; test: Antiallodynic activity in rat model of capsaicin-induced mechanical hyperalgesia assessed as increase in paw withdrawal threshold at 3 mg/kg, ip administered 30 mins before capsaicin addition relative to control; assay type: functional
[11] = tested on: Rattus norvegicus; test: Antiallodynic activity in rat model of capsaicin-induced mechanical hyperalgesia assessed as increase in paw withdrawal threshold at 10 mg/kg, ip administered 30 mins before capsaicin addition relative to control; assay type: functional
[12] = AUC in rat at 1 mg/kg, po; assay type: ADME, organism-based; details: in vivo

Sequence of Voltage-gated potassium channel, KQT; KCNQ2(Kv7.2)/KCNQ3(Kv7.3) (O43526 whole entry): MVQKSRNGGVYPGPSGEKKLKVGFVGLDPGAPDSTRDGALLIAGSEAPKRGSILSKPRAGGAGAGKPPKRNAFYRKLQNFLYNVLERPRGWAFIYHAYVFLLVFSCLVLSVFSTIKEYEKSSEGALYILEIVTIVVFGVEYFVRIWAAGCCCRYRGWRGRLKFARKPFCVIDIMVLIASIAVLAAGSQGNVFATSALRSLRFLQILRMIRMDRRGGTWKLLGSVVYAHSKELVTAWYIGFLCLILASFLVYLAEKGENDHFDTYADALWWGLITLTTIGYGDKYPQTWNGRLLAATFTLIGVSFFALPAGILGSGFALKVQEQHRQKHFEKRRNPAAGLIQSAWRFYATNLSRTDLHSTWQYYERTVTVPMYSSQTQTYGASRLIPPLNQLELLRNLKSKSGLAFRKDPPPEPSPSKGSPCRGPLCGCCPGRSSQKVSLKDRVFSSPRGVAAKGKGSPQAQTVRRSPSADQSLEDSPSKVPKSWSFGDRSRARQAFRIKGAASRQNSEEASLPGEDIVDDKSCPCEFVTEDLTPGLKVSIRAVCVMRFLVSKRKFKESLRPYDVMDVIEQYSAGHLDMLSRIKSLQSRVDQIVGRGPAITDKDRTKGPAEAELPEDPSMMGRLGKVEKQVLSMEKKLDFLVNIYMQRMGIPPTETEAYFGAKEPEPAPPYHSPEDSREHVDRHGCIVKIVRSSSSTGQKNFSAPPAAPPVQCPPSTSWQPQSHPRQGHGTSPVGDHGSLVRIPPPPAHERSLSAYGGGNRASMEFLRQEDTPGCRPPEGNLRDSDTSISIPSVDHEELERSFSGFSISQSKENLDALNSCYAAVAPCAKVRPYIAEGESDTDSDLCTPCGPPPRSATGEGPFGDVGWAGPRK
Sequence of Voltage-gated potassium channel, KQT; KCNQ2(Kv7.2)/KCNQ3(Kv7.3) (O43525 whole entry): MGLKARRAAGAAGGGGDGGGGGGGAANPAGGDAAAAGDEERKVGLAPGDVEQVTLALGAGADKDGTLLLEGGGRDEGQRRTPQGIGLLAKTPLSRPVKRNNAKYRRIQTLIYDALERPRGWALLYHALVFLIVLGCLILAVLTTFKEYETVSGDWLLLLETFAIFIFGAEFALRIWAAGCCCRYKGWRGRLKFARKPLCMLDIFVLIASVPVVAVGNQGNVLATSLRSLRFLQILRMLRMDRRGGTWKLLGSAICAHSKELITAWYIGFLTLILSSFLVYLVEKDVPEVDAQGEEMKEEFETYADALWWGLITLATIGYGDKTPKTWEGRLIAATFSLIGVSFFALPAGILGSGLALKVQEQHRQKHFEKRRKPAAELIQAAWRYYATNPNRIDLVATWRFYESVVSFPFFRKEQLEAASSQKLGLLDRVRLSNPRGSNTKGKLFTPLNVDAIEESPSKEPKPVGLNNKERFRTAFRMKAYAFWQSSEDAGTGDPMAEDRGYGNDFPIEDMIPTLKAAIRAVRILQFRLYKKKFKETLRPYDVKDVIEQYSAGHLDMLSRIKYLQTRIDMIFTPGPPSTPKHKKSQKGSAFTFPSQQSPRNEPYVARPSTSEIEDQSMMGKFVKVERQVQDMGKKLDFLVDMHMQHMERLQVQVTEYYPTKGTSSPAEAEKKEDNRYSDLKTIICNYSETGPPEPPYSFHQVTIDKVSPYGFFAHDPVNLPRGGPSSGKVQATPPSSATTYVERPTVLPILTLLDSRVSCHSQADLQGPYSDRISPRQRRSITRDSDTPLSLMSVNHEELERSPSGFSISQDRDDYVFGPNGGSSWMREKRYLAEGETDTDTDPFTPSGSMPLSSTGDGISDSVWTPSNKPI

SMILES	EC50 [1]	Emax [2]	further results
O=C(CCC1CCCC1)Nc1nn2cccnc2c1-c1ccc(C(F)(F)F)cc1	50 nM	–	–
Cc1cc(C)n2nc(NC(=O)CC(C)(C)C)c(-c3ccc(F)c(C)c3)c2n1	50 nM	–	–
Cc1cc(-c2c(NC(=O)CC(C)(C)C)nn3cccnc23)ccc1F	2310 nM	135%	–
NCC1(CC(=O)O)CCCCC1 [GABAPENTIN]	–	–	Activity [3]: 70%
CC(C)(C)CC(=O)Nc1nn2cccnc2c1-c1ccc(C(F)(F)F)cc1	140 nM	113%	–
O=C(Nc1nn2cccnc2c1-c1ccccc1)C1CCCCC1	–	8%	–
Cc1cc(C)n2nc(NC(=O)CCC3CCCC3)c(-c3ccc(F)c(C)c3)c2n1	70 nM	205%	–
Cc1cc(-c2c(NC(=O)CC3CCCC3)nn3cccnc23)ccc1F	1170 nM	139%	–
Cc1cnc2c(-c3ccc(F)c(C)c3)c(NC(=O)CC(C)(C)C)nn2c1	590 nM	159%	–
Cc1cnc2c(-c3ccc(F)c(C)c3)c(NC(=O)CCC3CCCC3)nn2c1	80 nM	–	–
O=C(CCC1CCCC1)Nc1nn2cccnc2c1-c1ccc(OC(F)(F)F)cc1	310 nM	–	–
CC(C)(C)c1ccnc2c(NC(=O)Cc3cc(F)cc(F)c3)cnn12	910 nM	149%	–
Cc1cc(C)n2nc(NC(=O)CC3CCCC3)c(-c3ccc(F)c(C)c3)c2n1	70 nM	165%	–
CCOC(=O)Nc1ccc(NCc2ccc(F)cc2)cc1N [EZOGABINE]	4380 nM	99%	–
O=C(CCC1CCCCC1)Nc1nn2cccnc2c1-c1ccccc1	130 nM	–	–
Cc1cnc2c(-c3ccc(F)c(C)c3)c(NC(=O)CC3CCCC3)nn2c1	140 nM	168%	–
O=C(CC1CCCC1)Nc1nn2cccnc2c1-c1ccc(F)cc1	1000 nM	100%	–
CC(C)(C)CC(=O)Nc1nn2cccnc2c1-c1ccccc1	–	26%	–
CCOC(=O)Nc1ccc(NCc2ccc(F)cc2)nc1N [FLUPIRTINE]	560 nM	112%	–
Cc1cc(-c2c(NC(=O)CCC3CCCC3)nn3cccnc23)ccc1F	180 nM	169%	–
O=C(CC1CCCC1)Nc1nn2cccnc2c1-c1ccc(OC(F)(F)F)cc1	190 nM	88%	–
O=C(CCC1CCCC1)Nc1nn2cccnc2c1-c1ccc(F)cc1	140 nM	–	–
CC(C)(C)CC(=O)Nc1nn2cccnc2c1-c1ccc(OC(F)(F)F)cc1	410 nM	–	Activity [4]: Dose-dependent effect; clearance [5]: 13.3 mL/min/kg; Kp [6]: 3.8; bioavailability [7]: 56%; Activity [8]: 52%; half-life [9]: 1.9 h; Activity [10]: 10%; Activity [11]: 26%; AUC [12]: 706 ng·h/mL
O=C(Nc1nn2cccnc2c1-c1ccc(F)cc1)C1CCCC1	> 32000 nM	20%	–
CC(C)(C)CC(=O)Nc1nn2cccnc2c1-c1ccc(F)cc1	6800 nM	–	–
O=C(CC1CCCCC1)Nc1nn2cccnc2c1-c1ccccc1	290 nM	133%	–
O=C(CC1CCCC1)Nc1nn2cccnc2c1-c1ccc(C(F)(F)F)cc1	–	28%	–
CC(C)(C)CC(=O)Nc1nn2c(C(C)(C)C)ccnc2c1-c1ccc(OC(F)(F)F)cc1	> 32000 nM	–	–
